# In patent publication US20230023559A1, “ARYLMETHYLENE HETEROCYCLIC COMPOUNDS AS KV1.3 POTASSIUM SHAKER CHANNEL BLOCKERS” (D. E. Shaw Research, LLC, priority 2019, published 2023):
# Assays:
# Kv1.3 potassium channel = molecular target: T1, Kv1.3 potassium channel (Homo sapiens, UniProt P22001); experiment: Kv1.3 potassium channel blocker activity, automated whole-cell patch clamp (Patchliner); assay type: cell-based; conditions: CHO-K1 cells stably expressing Kv1.3; whole cell current inhibition; read-out: Kv1.3_IC50
# T1 construct: expressed in transfected cells
# Method in brief: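 Peak-current block was recorded on stable Kv1.3 CHO-K1 cells by automated patch clamp, stepping from a −90 mV holding potential to +40 mV for 100 ms at 0.1 Hz with 10 s breaks between trains. Online P/4 leak subtraction, 10 kHz sampling; compound exposure under 10 s per train.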
# hERG channel = hERG channel (Homo sapiens, UniProt Q12809); experiment: hERG electrophysiology, automated whole-cell patch clamp (Patchliner)
# Sequence of hERG channel (Q12809 whole entry): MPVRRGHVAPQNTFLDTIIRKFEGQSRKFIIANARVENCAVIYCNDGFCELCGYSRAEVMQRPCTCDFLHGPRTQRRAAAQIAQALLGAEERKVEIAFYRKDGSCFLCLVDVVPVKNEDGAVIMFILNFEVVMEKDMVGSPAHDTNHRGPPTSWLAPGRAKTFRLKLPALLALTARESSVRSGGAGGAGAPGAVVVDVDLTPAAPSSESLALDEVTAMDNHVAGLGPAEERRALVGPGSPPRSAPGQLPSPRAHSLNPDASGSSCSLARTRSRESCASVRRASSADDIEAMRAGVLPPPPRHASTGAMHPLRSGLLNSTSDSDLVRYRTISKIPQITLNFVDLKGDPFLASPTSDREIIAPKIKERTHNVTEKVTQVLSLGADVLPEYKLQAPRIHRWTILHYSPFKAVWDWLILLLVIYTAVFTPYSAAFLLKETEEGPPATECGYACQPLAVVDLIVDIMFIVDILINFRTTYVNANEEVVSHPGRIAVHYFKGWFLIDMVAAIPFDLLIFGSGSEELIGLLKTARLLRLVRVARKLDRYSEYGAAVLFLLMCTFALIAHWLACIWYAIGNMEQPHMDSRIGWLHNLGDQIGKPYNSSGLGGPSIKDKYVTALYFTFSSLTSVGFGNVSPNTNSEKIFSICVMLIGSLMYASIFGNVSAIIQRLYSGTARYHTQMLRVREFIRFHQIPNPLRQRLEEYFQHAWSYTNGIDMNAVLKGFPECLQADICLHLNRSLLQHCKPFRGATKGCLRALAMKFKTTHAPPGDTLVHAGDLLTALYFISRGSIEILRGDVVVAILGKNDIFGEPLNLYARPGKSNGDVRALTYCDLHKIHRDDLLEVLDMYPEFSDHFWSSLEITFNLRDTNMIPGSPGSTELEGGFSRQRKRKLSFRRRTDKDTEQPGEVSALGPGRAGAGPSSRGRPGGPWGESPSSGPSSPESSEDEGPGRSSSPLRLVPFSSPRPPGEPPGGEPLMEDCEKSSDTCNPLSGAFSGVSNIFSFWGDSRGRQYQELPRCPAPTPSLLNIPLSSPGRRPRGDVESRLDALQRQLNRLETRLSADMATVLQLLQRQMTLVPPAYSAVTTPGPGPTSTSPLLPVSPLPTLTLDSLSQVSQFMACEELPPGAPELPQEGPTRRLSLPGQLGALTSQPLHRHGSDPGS
# T1 sequence (P22001 whole entry): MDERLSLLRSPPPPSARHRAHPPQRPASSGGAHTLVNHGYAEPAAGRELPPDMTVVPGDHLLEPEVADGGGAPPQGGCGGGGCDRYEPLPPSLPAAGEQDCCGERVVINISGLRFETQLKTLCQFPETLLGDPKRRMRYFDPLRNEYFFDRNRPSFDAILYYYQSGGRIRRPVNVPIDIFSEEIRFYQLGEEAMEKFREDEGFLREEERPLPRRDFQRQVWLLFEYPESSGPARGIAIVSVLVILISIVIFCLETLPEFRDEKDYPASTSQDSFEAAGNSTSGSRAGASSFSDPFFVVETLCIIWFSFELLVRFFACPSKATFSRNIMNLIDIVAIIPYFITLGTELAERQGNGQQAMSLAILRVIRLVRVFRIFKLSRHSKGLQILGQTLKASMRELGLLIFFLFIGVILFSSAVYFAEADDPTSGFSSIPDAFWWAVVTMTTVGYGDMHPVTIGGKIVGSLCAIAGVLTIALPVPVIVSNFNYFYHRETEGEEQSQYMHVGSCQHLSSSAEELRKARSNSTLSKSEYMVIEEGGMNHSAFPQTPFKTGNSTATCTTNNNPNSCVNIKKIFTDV
SMILES,IC50 (Kv1.3 potassium channel) [µM],IC50 (hERG channel) [µM]
"CC(C)(O)CC(=O)N1CCC(C(N)c2cc(Cl)c(Cl)cc2O)CC1 (stereo not shown) [Compound 49, 1-(4-(amino(4,5-dichloro-2-hydroxyphenyl)methyl)piperidin-1-yl)-3-hydroxyl-3-methylbutan-1-one trifluoroacetic acid]",< 10,< 30
"C[C@H](N)C(=O)N1CCC(C(N)c2cc(Cl)c(Cl)cc2O)CC1 (stereo partly drawn) [Compound 50, (2S)-2-amino-1-(4-(amino(4,5-dichloro-2-hydroxyphenyl)methyl)piperidin-1-yl)propan-1-one trifluoroacetic acid]",< 0.5,> 30
"NC(c1cc(Cl)c(Cl)cc1O)C1CCN(CC2CC2)CC1 (stereo not shown) [Compound 51, 2-[amino[1-(cyclopropylmethyl)piperidin-4-yl]methyl]-4,5-dichlorophenol Trifluoroacetic Acid]",< 10,> 30
"NC(c1cc(Cl)c(Cl)cc1O)C1CNC1 (stereo not shown) [Compound 52, 2-[amino(azetidin-3-yl)methyl]-4,5-dichlorophenol Trifluoroacetic Acid]",< 10,> 30
"NC(=O)N1CCC(C(N)c2cc(Cl)c(Cl)cc2O)CC1 (stereo not shown) [Compound 53, 4-[amino(4,5-dichloro-2-hydroxyphenyl)methyl]piperidine-1-carboxamide]",< 0.5,> 30
"C[C@@H](N)C(=O)N1CCC(C(N)c2cc(Cl)c(Cl)cc2O)CC1 (stereo partly drawn) [Compound 54, (2R)-2-amino-1-(4-(amino(4,5-dichloro-2-hydroxyphenyl)methyl)piperidin-1-yl)propan-1-one Trifluoroacetic Acid]",< 0.5,> 30
"CC(C)(O)CN1CCC(C(N)c2cc(Cl)c(Cl)cc2O)CC1 (stereo not shown) [Compound 56, 2-[amino[1-(2-hydroxy-2-methylpropyl)piperidin-4-yl]methyl]-4,5-dichlorophenol Trifluoroacetic Acid]",< 10,< 30
"NC(c1cc(Cl)c(Cl)cc1O)C1CCN(C(=O)[C@@H]2CCNC2)CC1 (stereo partly drawn) [Compound 66, (4-(amino(4,5-dichloro-2-hydroxyphenyl)methyl)piperidin-1-yl)((R)-pyrrolidin-3-yl)methanone Trifluoroacetic Acid]",< 0.5,> 30
"NC(c1cc(Cl)c(Cl)cc1O)C1CCN(C(=O)c2ccccc2)CC1 (stereo not shown) [Compound 68, 2-[amino(1-benzoylpiperidin-4-yl)methyl]-4,5-dichlorophenol Trifluoroacetic Acid]",< 10,< 30
"N[C@@H](c1cc(Cl)c(Cl)cc1O)C1CCN(C(=O)[C@H]2CCN2)CC1 [Compound 95, (4-((R)-amino(4,5-dichloro-2-hydroxyphenyl)methyl)piperidin-1-yl)((R)-azetidin-2-yl)methanone]",< 0.5,> 30
C[C@]1(C(=O)N2CCC([C@@H](N)c3cc(Cl)c(Cl)cc3O)CC2)CCCN1 [Compound 96],< 0.5,> 30
"C[C@@]1(C(=O)N2CCC([C@@H](N)c3cc(Cl)c(Cl)cc3O)CC2)CCCN1 [Compound 98, (4-((R)-amino(4,5-dichloro-2-hydroxyphenyl)methyl)piperidin-1-yl)((S)-2-methylpyrrolidin-2-yl)methanone]",< 0.5,> 30
"N[C@@H](c1cc(Cl)c(Cl)cc1O)C1CCN(C(=O)[C@@H]2CNCCO2)CC1 [Compound 99, (4-((R)-amino(4,5-dichloro-2-hydroxyphenyl)methyl)piperidin-1-yl)((S)-morpholin-2-yl)methanone]",< 0.5,> 30
"C[C@H](O)C(=O)N1CCC([C@@H](N)c2cc(Cl)c(Cl)cc2O)CC1 [Compound 102, (S)-1-(4-((R)-amino(4,5-dichloro-2-hydroxyphenyl)methyl)piperidin-1-yl)-2-hydroxypropan-1-one]",< 0.5,> 30

# The next lines start with results.
IC50 (Kv1.3 potassium channel) [µM],SMILES,IC50 (hERG channel) [µM]
< 0.5,"N#CC1(C(=O)N2CCC(C(N)c3cc(Cl)c(Cl)cc3O)CC2)CC1 (stereo not shown) [Compound 48, 1-(4-(amino(4,5-dichloro-2-hydroxyphenyl)methyl)piperidine-1-carbonyl)cyclopropanecarbonitrile Trifluoroacetic Acid]",< 30
< 10,"NC(c1cc(Cl)c(Cl)cc1O)C1(F)CCNCC1 (stereo not shown) [Compound 59, 2-[amino(4-fluoropiperidin-4-yl)methyl]-4,5-dichlorophenol Trifluoroacetic Acid]",< 30
< 0.5,"NC(c1cc(Cl)c(Cl)cc1O)C1CCN(C(=O)[C@H]2CCNC2)CC1 (stereo partly drawn) [Compound 63, (4-(amino(4,5-dichloro-2-hydroxyphenyl)methyl)piperidin-1-yl)((S)-pyrrolidin-3-yl)methanone Trifluoroacetic Acid]",> 30
< 0.5,"NC(c1cc(Cl)c(Cl)cc1O)C1CCN(C(=O)C2COC2)CC1 (stereo not shown) [Compound 67, 2-[amino[1-(oxetane-3-carbonyl)piperidin-4-yl]methyl]-4,5-dichlorophenol]",< 30
< 0.5,"NC(c1cc(Cl)c(Cl)cc1O)C1CCN(c2ccccn2)CC1 (stereo not shown) [Compound 70, 2-[amino[1-(pyridin-2-yl)piperidin-4-yl]methyl]-4,5-dichlorophenol Trifluoroacetic Acid]",< 30
< 10,"NC(c1cc(Cl)c(Cl)cc1O)C1CCN(c2ncco2)CC1 (stereo not shown) [Compound 74, 2-[amino[1-(1,3-oxazol-2-yl)piperidin-4-yl]methyl]-4,5-dichlorophenol]",< 30
< 0.5,"N[C@@H](c1cc(Cl)c(Cl)cc1O)C1CCN(C(=O)C2CNC2)CC1 [Compound 83, 2-[(R)-amino[1-(azetidine-3-carbonyl)piperidin-4-yl]methyl]-4,5-dichlorophenol Trifluoroacetic Acid]",> 30
< 0.5,"CN(C)CC(=O)N1CCC([C@@H](N)c2cc(Cl)c(Cl)cc2O)CC1 [Compound 89, (R)-1-(4-(amino(4,5-dichloro-2-hydroxyphenyl)methyl)piperidin-1-yl)-2-(dimethylamino)ethanone]",> 30
< 0.5,"NCC(=O)N1CCC([C@@H](N)c2cc(Cl)c(Cl)cc2O)CC1 [Compound 92, 2-amino-1-[4-[(R)-amino(4,5-dichloro-2-hydroxyphenyl)methyl]piperidin-1-yl]ethan-1-one Trifluoroacetic Acid]",> 30
< 0.5,"N[C@@H](c1cc(Cl)c(Cl)cc1O)C1CCN(C(=O)[C@H]2CNCCO2)CC1 [Compound 97, (4-((R)-amino(4,5-dichloro-2-hydroxyphenyl)methyl)piperidin-1-yl)((R)-morpholin-2-yl)methanone trifluoroacetic acid]",> 30
< 0.5,"N[C@@H](c1cc(Cl)c(Cl)cc1O)C1CCN(C(=O)[C@@H]2CCN2)CC1 [Compound 100, 2-[(R)-amino([1-[(2S)-azetidine-2-carbonyl]piperidin-4-yl])methyl]-4,5-dichlorophenol]",> 30
< 0.5,"O=C([C@@H]1CCNC1)N1CCC(C(O)c2cc(Cl)c(Cl)cc2O)CC1 (stereo partly drawn) [Compound 101, 4,5-dichloro-2-[hydroxy([1-[(3R)-pyrrolidine-3-carbonyl]piperidin-4-yl])methyl]phenol]",> 30
